Measured values taken from patent publication EP4682145A1, “BENZOHETEROCYCLIC COMPOUND, AND PREPARATION METHOD THEREFOR AND USE THEREOF” (Cascade Pharmaceuticals, Inc., priority 2023, dated 2024).

Each compound was assayed against T1, human FFAR1 (GPR40) (Homo sapiens, UniProt O14842) (assay: NFAT-RE-based reporter gene activity assay (Dual-Glo luciferase) for GPR40 agonistic activity in co-transfected HEK293T cells). Settings: 4-hour treatment.
T1 construct: Flag; expressed in transfected cells; host or cells: HEK293T
Type: cell-based
Method in brief: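 HEK293T cells co-transfected with human FFAR1, NFAT-RE firefly luciferase and TK-Renilla plasmids; 24 h later treated 4 h with 10 half-log compound dilutions from 1 µM. Firefly/Renilla ratio normalised to DMSO; EC50 from four-parameter fit.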

T1 sequence (O14842 whole entry): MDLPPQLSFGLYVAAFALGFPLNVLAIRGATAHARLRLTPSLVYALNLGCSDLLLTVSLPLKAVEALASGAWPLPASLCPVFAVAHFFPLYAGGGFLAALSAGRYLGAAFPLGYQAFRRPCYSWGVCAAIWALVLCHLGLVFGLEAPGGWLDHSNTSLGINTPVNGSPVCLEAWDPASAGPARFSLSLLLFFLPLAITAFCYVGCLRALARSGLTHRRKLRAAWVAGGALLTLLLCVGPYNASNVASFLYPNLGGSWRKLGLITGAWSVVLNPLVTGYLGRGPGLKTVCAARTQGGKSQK

Structure (SMILES)	EC50 [nM]
COc1cccc(N2CCC(c3oc4cc(C(CC(=O)O)C5CC5)ccc4c3-c3cccc(N(CC(C)(C)C)C(C)=O)n3)CC2)c1 (stereo not drawn) [Compound 148]	100 to 500
COc1cccc(N2CCC(c3oc4cc(C(CC(=O)O)C5CC5)ccc4c3-c3cccc(NC(=O)CC(C)(C)C)n3)CC2)c1 (stereo not drawn) [Compound 149]	100 to 500
COc1cccc(N2CCC(c3oc4cc([C@@H](CC(=O)O)C5CC5)ccc4c3-c3cc4ccccc4[nH]3)CC2)c1 [Compound 150]	100 to 500
COc1cccc(N2CCC(c3oc4cc([C@@H](CC(=O)O)C5CC5)ccc4c3-c3cc4cccc(F)c4[nH]3)CC2)c1 [Compound 151]	100 to 500
COc1cccc(N2CCC(c3oc4cc([C@@H](CC(=O)O)C5CC5)ccc4c3-c3nc4ccccc4s3)CC2)c1 [Compound 152]	100 to 500
COc1cccc(N2CCC(c3oc4cc([C@@H](CC(=O)O)C5CC5)ccc4c3-c3nc4ccccn4n3)CC2)c1 [Compound 153]	100 to 500
COc1cccc(N2CCC(c3oc4cc([C@@H](CC(=O)O)C5CC5)ccc4c3-c3ccc4ccccc4n3)CC2)c1 [Compound 154]	100 to 500
COc1cccc(N2CCC(c3oc4cc([C@@H](CC(=O)O)C5CC5)ccc4c3-c3ccc4cccc(F)c4n3)CC2)c1 [Compound 155]	10 to 100
COc1ccc(F)c(N2CCC(c3oc4cc(C(CC(=O)O)C5CC5)ccc4c3-c3ccccc3)CC2)c1 (stereo not drawn) [Compound 156]	100 to 500
COc1ccc(F)c(N2CCC(c3oc4cc(C(CC(=O)O)C5CC5)ccc4c3-c3cccc(C)c3)CC2)c1 (stereo not drawn) [Compound 157]	100 to 500
COc1ccc(F)c(N2CCC(c3oc4cc([C@@H](CC(=O)O)C5CC5)ccc4c3-c3cccc(C)c3)CC2)c1 [Compound 158]	100 to 500
COc1ccc(F)c(N2CCC(c3oc4cc(C(CC(=O)O)C5CC5)ccc4c3-c3ccccc3C)CC2)c1 (stereo not drawn) [Compound 159]	100 to 500
COc1ccc(F)c(N2CCC(c3oc4cc(C(CC(=O)O)C5CC5)ccc4c3-c3ccc(C)cc3)CC2)c1 (stereo not drawn) [Compound 160]	100 to 500
COc1ccc(F)c(N2CCC(c3oc4cc([C@@H](CC(=O)O)C5CC5)ccc4c3-c3ccc(C)cc3)CC2)c1 [Compound 161]	100 to 500
CCc1ccc(-c2c(C3CCN(c4cc(OC)ccc4F)CC3)oc3cc(C(CC(=O)O)C4CC4)ccc23)cc1 (stereo not drawn) [Compound 162]	100 to 500
COc1ccc(F)c(N2CCC(c3oc4cc(C(CC(=O)O)C5CC5)ccc4c3-c3ccc(C(C)C)cc3)CC2)c1 (stereo not drawn) [Compound 163]	100 to 500
COc1ccc(F)c(N2CCC(c3oc4cc(C(CC(=O)O)C5CC5)ccc4c3-c3cccc(C4CC4)c3)CC2)c1 (stereo not drawn) [Compound 164]	100 to 500
COc1ccc(F)c(N2CCC(c3oc4cc([C@H](CC(=O)O)C5CC5)ccc4c3-c3cccc(C(C)(C)C)c3)CC2)c1 [Compound 167]	100 to 500

Same assay, conditions: 4-hour treatment, class symbols

Structure (SMILES)	Efficacy (%)
COc1cccc(N2CCC(c3oc4cc(C(CC(=O)O)C5CC5)ccc4c3-c3cccc(N(CC(C)(C)C)C(C)=O)n3)CC2)c1 (stereo not drawn) [Compound 148]	†† (150 ≥ Efficacy (%) > 100)
COc1cccc(N2CCC(c3oc4cc(C(CC(=O)O)C5CC5)ccc4c3-c3cccc(NC(=O)CC(C)(C)C)n3)CC2)c1 (stereo not drawn) [Compound 149]	†† (150 ≥ Efficacy (%) > 100)
COc1cccc(N2CCC(c3oc4cc([C@@H](CC(=O)O)C5CC5)ccc4c3-c3cc4ccccc4[nH]3)CC2)c1 [Compound 150]	†† (150 ≥ Efficacy (%) > 100)
COc1cccc(N2CCC(c3oc4cc([C@@H](CC(=O)O)C5CC5)ccc4c3-c3cc4cccc(F)c4[nH]3)CC2)c1 [Compound 151]	†† (150 ≥ Efficacy (%) > 100)
COc1cccc(N2CCC(c3oc4cc([C@@H](CC(=O)O)C5CC5)ccc4c3-c3nc4ccccc4s3)CC2)c1 [Compound 152]	†† (150 ≥ Efficacy (%) > 100)
COc1cccc(N2CCC(c3oc4cc([C@@H](CC(=O)O)C5CC5)ccc4c3-c3nc4ccccn4n3)CC2)c1 [Compound 153]	††† (Efficacy (%) > 150)
COc1cccc(N2CCC(c3oc4cc([C@@H](CC(=O)O)C5CC5)ccc4c3-c3ccc4ccccc4n3)CC2)c1 [Compound 154]	††† (Efficacy (%) > 150)
COc1cccc(N2CCC(c3oc4cc([C@@H](CC(=O)O)C5CC5)ccc4c3-c3ccc4cccc(F)c4n3)CC2)c1 [Compound 155]	††† (Efficacy (%) > 150)
COc1ccc(F)c(N2CCC(c3oc4cc(C(CC(=O)O)C5CC5)ccc4c3-c3ccccc3)CC2)c1 (stereo not drawn) [Compound 156]	†† (150 ≥ Efficacy (%) > 100)
COc1ccc(F)c(N2CCC(c3oc4cc(C(CC(=O)O)C5CC5)ccc4c3-c3cccc(C)c3)CC2)c1 (stereo not drawn) [Compound 157]	††† (Efficacy (%) > 150)
COc1ccc(F)c(N2CCC(c3oc4cc([C@@H](CC(=O)O)C5CC5)ccc4c3-c3cccc(C)c3)CC2)c1 [Compound 158]	†† (150 ≥ Efficacy (%) > 100)
COc1ccc(F)c(N2CCC(c3oc4cc(C(CC(=O)O)C5CC5)ccc4c3-c3ccccc3C)CC2)c1 (stereo not drawn) [Compound 159]	†† (150 ≥ Efficacy (%) > 100)
COc1ccc(F)c(N2CCC(c3oc4cc(C(CC(=O)O)C5CC5)ccc4c3-c3ccc(C)cc3)CC2)c1 (stereo not drawn) [Compound 160]	†† (150 ≥ Efficacy (%) > 100)
COc1ccc(F)c(N2CCC(c3oc4cc([C@@H](CC(=O)O)C5CC5)ccc4c3-c3ccc(C)cc3)CC2)c1 [Compound 161]	† (100 ≥ Efficacy (%) > 50)
CCc1ccc(-c2c(C3CCN(c4cc(OC)ccc4F)CC3)oc3cc(C(CC(=O)O)C4CC4)ccc23)cc1 (stereo not drawn) [Compound 162]	††† (Efficacy (%) > 150)
COc1ccc(F)c(N2CCC(c3oc4cc(C(CC(=O)O)C5CC5)ccc4c3-c3ccc(C(C)C)cc3)CC2)c1 (stereo not drawn) [Compound 163]	†† (150 ≥ Efficacy (%) > 100)
COc1ccc(F)c(N2CCC(c3oc4cc(C(CC(=O)O)C5CC5)ccc4c3-c3cccc(C4CC4)c3)CC2)c1 (stereo not drawn) [Compound 164]	†† (150 ≥ Efficacy (%) > 100)
COc1ccc(F)c(N2CCC(c3oc4cc([C@H](CC(=O)O)C5CC5)ccc4c3-c3cccc(C(C)(C)C)c3)CC2)c1 [Compound 167]	†† (150 ≥ Efficacy (%) > 100)
